The values below come from US20260062422A1 (Halda Therapeutics OpCo, Inc., priority 2022, published 2026).

Experiment [1] relates to T-Rex 293 cell line SC3 cells lacking increased expression of androgen receptor protein. Briefly: Cellular growth inhibition, T-Rex 293 SC3 cells without doxycycline, CellTiter-Glo. It counts as cell-based. The settings on record: T-Rex 293 SC3 cells not exposed to doxycycline, CellTiter-Glo 2.0. The procedure, abridged: (§1)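 GI50 came from a four-parameter fit of CellTiter-Glo 2.0 luminescence after 72 h compound exposure (0.5% DMSO, 37 °C), dosing 24 h post-seeding. SC3 clone cells (2500/well), transfected with wild-type androgen receptor, grew in charcoal-stripped serum medium lacking phenol red, induced with 10 ng/mL doxycycline or left uninduced.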
(In general: ATP-based viability assays read luminescence as a measure of living cells.)

In experiment [2] the test system is T-Rex 293 cell line SC3 cells having increased expression of androgen receptor protein due to exposure to doxycycline. Briefly: Cellular growth inhibition, T-Rex 293 SC3 cells with doxycycline (androgen receptor induced), CellTiter-Glo. It counts as cell-based. The settings on record: T-Rex 293 SC3 cells with 10 ng/mL doxycycline (increased androgen receptor expression). The procedure, abridged: as §1

The subject of a further experiment is VCaP cells. Nature of the experiment: Cellular growth inhibition assay for VCaP cells, CellTiter-Glo. It counts as cell-based, human. The settings on record: 72 hours treatment, CellTiter-Glo 2.0. The gist of the method:
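GI50 values come from four-parameter curve fits of luminescence data normalized to a zero baseline. Compound, in medium with 0.5% DMSO, was added one day after plating and left for 72 h before CellTiter-Glo 2.0 addition.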

Another experiment deals with T47D cells. Briefly: Cellular growth inhibition assay for T47D cells, CellTiter-Glo. It counts as cell-based, human. The settings on record: 72 hours treatment, CellTiter-Glo 2.0 cell viability. The procedure, abridged: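 Cells are plated at 3000/well and allowed 24 h before treatment. Test compound in medium containing 0.5% DMSO is then added, with DMSO-only wells as negative control, and plates are incubated 72 h at 37 °C. ATP luminescence (CellTiter-Glo 2.0) is then fitted to four parameters to derive GI50.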

With `Cc1sc2c(c1C)C(c1ccc(CC3CCN(c4ncc(C(=O)N[C@H]5C(C)(C)[C@H](Oc6ccc(C#N)c(Cl)c6)C5(C)C)cn4)CC3)cc1)=N[C@@H](C)c1nnc(C)n1-2` [Compound I-557], the GI50 was < 500 nM in experiment [1] (72 h); < 500 nM in experiment [2] (72 h); < 500 nM in the experiment with VCaP cells (Homo sapiens, VCaP, 72 h); > 3000 nM with T47D cells (Homo sapiens, T47D, 72 h).

With `Cc1sc2c(c1C)C(c1ccc(C[C@H]3C[C@@]4(CCCN(c5ncc(C(=O)N[C@H]6C(C)(C)[C@H](Oc7ccc(C#N)c(Cl)c7)C6(C)C)cn5)C4)C3)cc1)=N[C@@H](C)c1nnc(C)n1-2` [Compound I-393], the GI50 in experiment [1] (72 h) is > 3000 nM; in experiment [2] (72 h), < 500 nM; with VCaP cells (Homo sapiens, VCaP, 72 h), < 500 nM; in the experiment with T47D cells (Homo sapiens, T47D, 72 h), > 3000 nM.

For the compound `Cc1sc2c(c1C)C(c1ccc(CN3CCC4(CCCN(c5ncc(C(=O)N[C@H]6C(C)(C)[C@H](Oc7ccc(C#N)c(Cl)c7)C6(C)C)cn5)C4)C3)cc1)=NC(Cc1ncco1)c1nnc(C)n1-2` (some centres unmarked) [Compound I-137], the GI50 is 500 to 1500 nM in experiment [1] (72 h); < 500 nM in experiment [2] (72 h); < 500 nM in the experiment with VCaP cells (Homo sapiens, VCaP, 72 h); < 500 nM with T47D cells (Homo sapiens, T47D, 72 h).

For `Cc1sc2c(c1C)C(c1ccc(N(C)CC(=O)N3CCC(c4ncc(C(=O)N[C@H]5C(C)(C)[C@H](Oc6ccc(C#N)c(Cl)c6)C5(C)C)cn4)CC3)cc1)=N[C@H](Cc1ncco1)c1nnc(C)n1-2` [Compound I-356], the GI50 in experiment [1] (72 h) was > 3000 nM; in experiment [2] (72 h), < 500 nM; with VCaP cells (Homo sapiens, VCaP, 72 h), < 500 nM; in the experiment on T47D cells (Homo sapiens, T47D, 72 h) it was 500 to 1500 nM.

Regarding `Cc1sc2c(c1C)C(c1ccc(C3CC(CC4CN(c5ncc(C(=O)N[C@H]6C(C)(C)[C@H](Oc7ccc(C#N)c(Cl)c7)C6(C)C)cn5)C4)C3)cc1)=NC(Cc1ncco1)c1nnc(C)n1-2` (some centres unmarked) [Compound I-477], the GI50 (in experiment [1] (72 hours); in experiment [2] (72 hours); with VCaP cells; with T47D cells) was < 500 nM throughout.

For `Cc1sc2c(c1C)C(c1ccc(C3CC(CC4CN(c5ncc(C(=O)N[C@H]6C(C)(C)[C@H](Oc7ccc(C#N)c(Cl)c7)C6(C)C)cn5)C4)C3)cc1)=NC(Cc1ncco1)c1nnc(C)n1-2` (some centres unmarked) [Compound I-476], the GI50 in experiment [1] (72 h) is < 500 nM; in experiment [2] (72 h) it was < 500 nM; in the experiment with VCaP cells (Homo sapiens, VCaP, 72 h), < 500 nM; in the experiment on T47D cells (Homo sapiens, T47D, 72 h) it was < 500 nM.

In the case of `CCNC(=O)C[C@@H]1N=C(c2ccc(OC3CC(OC4CCN(c5ncc(C(=O)N[C@H]6C(C)(C)[C@H](Oc7ccc(C#N)c(Cl)c7)C6(C)C)cn5)CC4)C3)cc2)c2c(sc(C)c2C)-n2c(C)nnc21` (some centres unmarked) [Compound I-72], the GI50 was 500 to 1500 nM in experiment [1] (72 h); < 500 nM in experiment [2] (72 h); < 500 nM with VCaP cells (Homo sapiens, VCaP, 72 h); < 500 nM with T47D cells (Homo sapiens, T47D, 72 h).

For the compound `Cc1sc2c(c1C)C(c1ccc(CN(C)C(=O)NCc3ncc(C(=O)N[C@H]4C(C)(C)[C@H](Oc5ccc(C#N)c(Cl)c5)C4(C)C)cn3)cc1)=N[C@@H](Cc1ncco1)c1nnc(C)n1-2` [Compound I-361], the GI50 in experiment [1] (72 h) is > 3000 nM; in experiment [2] (72 h) it was > 3000 nM; with VCaP cells (Homo sapiens, VCaP, 72 h), 1500 to 3000 nM; with T47D cells (Homo sapiens, T47D, 72 h) it was 1500 to 3000 nM.

Regarding `CCNC(=O)C[C@@H]1N=C(c2ccc(N3CCC(OC4CN(c5ncc(C(=O)N[C@H]6C(C)(C)[C@H](Oc7ccc(C#N)c(Cl)c7)C6(C)C)cn5)C4)CC3)cc2)c2c(sc(C)c2C)-n2c(C)nnc21` [Compound I-118], the GI50 is 500 to 1500 nM in experiment [1] (72 h); < 500 nM in experiment [2] (72 h); < 500 nM in the experiment with VCaP cells (Homo sapiens, VCaP, 72 h); < 500 nM in the experiment on T47D cells (Homo sapiens, T47D, 72 h).

With `Cc1sc2c(c1C)C(c1ccc(-c3ccc(OC4CCN(c5ncc(C(=O)N[C@H]6C(C)(C)[C@H](Oc7ccc(C#N)c(Cl)c7)C6(C)C)cn5)CC4)s3)cc1)=N[C@@H](Cc1ncco1)c1nnc(C)n1-2` [Compound I-409], the GI50 in experiment [1] (72 h) is > 3000 nM; in experiment [2] (72 h), < 500 nM; in the experiment on VCaP cells (Homo sapiens, VCaP, 72 h) it was > 3000 nM; with T47D cells (Homo sapiens, T47D, 72 h), < 500 nM.

In the case of `Cc1sc2c(c1C)C(c1ccc(CN3CC[C@]4(CCCN(c5ncc(C(=O)N[C@H]6C(C)(C)[C@H](Oc7ccc(C#N)c(Cl)c7)C6(C)C)cn5)C4)C3)cc1)=N[C@@H](Cc1ncco1)c1nnc(C)n1-2` [Compound I-145], the GI50 in experiment [1] (72 h) is < 500 nM; in experiment [2] (72 h), < 500 nM; in the experiment on VCaP cells (Homo sapiens, VCaP, 72 h), < 500 nM; with T47D cells (Homo sapiens, T47D, 72 h), < 500 nM.

With `Cc1sc2c(c1C)C(c1ccc(CCN3CC[C@]4(C3)CN(c3ncc(C(=O)N[C@H]5C(C)(C)[C@H](Oc6ccc(C#N)c(Cl)c6)C5(C)C)cn3)CC(F)(F)C4)cc1)=N[C@@H](Cc1ncco1)c1nnc(C)n1-2` [Compound I-424], the GI50 in experiment [1] (72 h) was > 3000 nM; in experiment [2] (72 h), < 500 nM; in the experiment with VCaP cells (Homo sapiens, VCaP, 72 h) it was < 500 nM; with T47D cells (Homo sapiens, T47D, 72 h), < 500 nM.

With `Cc1sc2c(c1C)C(c1ccc(CC[C@@H]3CCCN(c4ncc(C(=O)N[C@H]5C(C)(C)[C@H](Oc6ccc(C#N)c(Cl)c6)C5(C)C)cn4)C3)cc1)=N[C@@H](Cc1ncco1)c1nnc(C)n1-2` [Compound I-299], the GI50 is 500 to 1500 nM in experiment [1] (72 h); < 500 nM in experiment [2] (72 h); < 500 nM in the experiment with VCaP cells (Homo sapiens, VCaP, 72 h); 1500 to 3000 nM with T47D cells (Homo sapiens, T47D, 72 h).

For the compound `Cc1sc2c(c1C)C(c1ccc(OC3CCN(C4CCN(c5ncc(C(=O)N[C@H]6C(C)(C)[C@H](Oc7ccc(C#N)c(Cl)c7)C6(C)C)cn5)CC4)CC3)cc1)=N[C@@H](C)c1nnc(C)n1-2` [Compound I-325], the GI50 in experiment [1] (72 h) is 1500 to 3000 nM; in experiment [2] (72 h), < 500 nM; in the experiment on VCaP cells (Homo sapiens, VCaP, 72 h) it was > 3000 nM; in the experiment on T47D cells (Homo sapiens, T47D, 72 h) it was 500 to 1500 nM.

With `Cc1sc2c(c1C)C(c1ccc(C[C@@H]3CC[C@@]4(CCCN(c5ncc(C(=O)N[C@H]6C(C)(C)[C@H](Oc7ccc(C#N)c(Cl)c7)C6(C)C)cn5)C4)C3)cc1)=N[C@@H](Cc1ncco1)c1nnc(C)n1-2` [Compound I-164], the GI50 is > 3000 nM in experiment [1] (72 h); < 500 nM in experiment [2] (72 h); 500 to 1500 nM in the experiment on VCaP cells (Homo sapiens, VCaP, 72 h); 500 to 1500 nM in the experiment on T47D cells (Homo sapiens, T47D, 72 h).

Turning to `Cc1sc2c(c1C)C(c1ccc(NCC3(F)CCN(c4ncc(C(=O)N[C@H]5C(C)(C)[C@H](Oc6ccc(C#N)c(Cl)c6)C5(C)C)cn4)CC3)cc1)=NC(Cc1ncco1)c1nnc(C)n1-2` (some centres unmarked) [Compound I-634], the GI50 in experiment [1] (72 h) was > 3000 nM; in experiment [2] (72 h), < 500 nM; in the experiment with VCaP cells (Homo sapiens, VCaP, 72 h), 500 to 1500 nM; in the experiment with T47D cells (Homo sapiens, T47D, 72 h), < 500 nM.

As to `Cc1sc2c(c1C)C(c1ccc(CC[C@H]3C[C@@]4(CCCN(c5ncc(C(=O)N[C@H]6C(C)(C)[C@H](Oc7ccc(C#N)c(Cl)c7)C6(C)C)cn5)C4)C3)cc1)=N[C@@H](Cc1ncco1)c1nnc(C)n1-2` [Compound I-240], the GI50 is > 3000 nM in experiment [1] (72 h); > 3000 nM in experiment [2] (72 h); > 3000 nM with VCaP cells (Homo sapiens, VCaP, 72 h); > 3000 nM in the experiment with T47D cells (Homo sapiens, T47D, 72 h).

`Cc1sc2c(c1C)C(c1ccc(CCN3CC[C@@]4(C3)CN(c3ncc(C(=O)N[C@H]5C(C)(C)[C@H](Oc6ccc(C#N)c(Cl)c6)C5(C)C)cn3)CCO4)cc1)=N[C@@H](Cc1ncco1)c1nnc(C)n1-2` [Compound I-243]: the GI50 in experiment [1] (72 h) was < 500 nM; in experiment [2] (72 h), < 500 nM; with VCaP cells (Homo sapiens, VCaP, 72 h) it was < 500 nM; with T47D cells (Homo sapiens, T47D, 72 h), < 500 nM.

With `Cc1sc2c(c1C)C(c1ccc(CCCN3CC4(C3)CN(c3ncc(C(=O)N[C@H]5C(C)(C)[C@H](Oc6ccc(C#N)c(Cl)c6)C5(C)C)cn3)C4)cc1)=N[C@@H](C)c1nnc(C)n1-2` [Compound I-348], the GI50 is 1500 to 3000 nM in experiment [1] (72 h); < 500 nM in experiment [2] (72 h); < 500 nM with VCaP cells (Homo sapiens, VCaP, 72 h); < 500 nM in the experiment with T47D cells (Homo sapiens, T47D, 72 h).

In the case of `COC[C@@H]1N=C(c2ccc(OC3CC4(CCCN(c5ncc(C(=O)N[C@H]6C(C)(C)[C@@H](Oc7ccc(C#N)c(Cl)c7)C6(C)C)cn5)C4)C3)cc2)c2c(sc(C)c2C)-n2c(C)nnc21` [Compound I-567], the GI50 in experiment [1] (72 h) was > 3000 nM; in experiment [2] (72 h) it was < 500 nM; in the experiment on VCaP cells (Homo sapiens, VCaP, 72 h), < 500 nM; in the experiment with T47D cells (Homo sapiens, T47D, 72 h), > 3000 nM.

What is called GI50 is the concentration giving 50% growth inhibition. A low value points to greater sensitivity of the cells.
